According to ChEMBL document CHEMBL1138197, “Dopamine/serotonin receptor ligands. 12(1): SAR studies on hexahydro-dibenz[d,g]azecines lead to 4-chloro-7-methyl-5,6,7,8,9,14-hexahydrodibenz[d,g]azecin-3-ol, the first picomolar D5-selective dopamine-receptor antagonist” (J Med Chem, 2006):

How the values were obtained:
D(1A) dopamine receptor [1] = biological target: T1, D(1A) dopamine receptor (Homo sapiens, UniProt P21728); assay: Displacement of [3H]SCH 23390 from D1 dopamine receptor
D(2) dopamine receptor [2] = biological target: T2, D(2) dopamine receptor (Homo sapiens, UniProt P14416); assay: Displacement of [3H]spiperone from D2L dopamine receptor
T2 sequence (P14416 whole entry): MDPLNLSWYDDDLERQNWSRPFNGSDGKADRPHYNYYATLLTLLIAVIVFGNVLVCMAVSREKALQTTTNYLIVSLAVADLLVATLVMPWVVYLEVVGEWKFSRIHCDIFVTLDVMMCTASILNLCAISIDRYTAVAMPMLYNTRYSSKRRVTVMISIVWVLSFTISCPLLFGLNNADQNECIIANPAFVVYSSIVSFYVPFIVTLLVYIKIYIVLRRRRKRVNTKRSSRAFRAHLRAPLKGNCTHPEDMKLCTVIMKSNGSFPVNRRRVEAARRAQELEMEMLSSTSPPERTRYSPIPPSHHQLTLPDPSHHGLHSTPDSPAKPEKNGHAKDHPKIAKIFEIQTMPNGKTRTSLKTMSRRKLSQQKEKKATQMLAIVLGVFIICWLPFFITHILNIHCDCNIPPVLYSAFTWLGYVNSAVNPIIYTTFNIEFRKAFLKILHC

D(1A) dopamine receptor [3] = biological target: T1, D(1A) dopamine receptor; assay: Inhibition of D1 dopamine receptor in HEK 293 cells by intracellular calcium assay; type: functional, cell-based, HEK293
D(1B) dopamine receptor [4] = biological target: T3, D(1B) dopamine receptor (Homo sapiens, UniProt P21918); assay: Inhibition of D5 dopamine receptor in HEK 293 cells by intracellular calcium assay; type: functional, cell-based, HEK293
T3 sequence (P21918 whole entry): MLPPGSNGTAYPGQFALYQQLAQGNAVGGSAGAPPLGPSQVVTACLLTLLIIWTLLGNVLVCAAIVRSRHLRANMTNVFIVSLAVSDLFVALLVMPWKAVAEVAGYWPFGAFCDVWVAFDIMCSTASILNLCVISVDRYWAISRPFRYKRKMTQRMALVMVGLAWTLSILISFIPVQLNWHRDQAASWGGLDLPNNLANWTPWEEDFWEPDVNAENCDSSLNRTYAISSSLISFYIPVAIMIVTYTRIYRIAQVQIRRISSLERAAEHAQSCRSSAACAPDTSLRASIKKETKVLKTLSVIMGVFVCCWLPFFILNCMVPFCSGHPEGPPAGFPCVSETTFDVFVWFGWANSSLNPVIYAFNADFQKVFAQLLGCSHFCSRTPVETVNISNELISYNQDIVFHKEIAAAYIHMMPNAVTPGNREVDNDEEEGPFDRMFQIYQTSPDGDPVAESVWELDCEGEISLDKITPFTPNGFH

D(2) dopamine receptor [5] = biological target: T2, D(2) dopamine receptor; assay: Inhibition of D2L dopamine receptor in HEK 293 cells by intracellular calcium assay; type: functional, cell-based, HEK293
D(3) dopamine receptor = D(3) dopamine receptor (Homo sapiens, UniProt P35462); assay: Binding affinity to D3 dopamine receptor by radioligand binding assay
D(3) dopamine receptor, sequence (P35462 whole entry): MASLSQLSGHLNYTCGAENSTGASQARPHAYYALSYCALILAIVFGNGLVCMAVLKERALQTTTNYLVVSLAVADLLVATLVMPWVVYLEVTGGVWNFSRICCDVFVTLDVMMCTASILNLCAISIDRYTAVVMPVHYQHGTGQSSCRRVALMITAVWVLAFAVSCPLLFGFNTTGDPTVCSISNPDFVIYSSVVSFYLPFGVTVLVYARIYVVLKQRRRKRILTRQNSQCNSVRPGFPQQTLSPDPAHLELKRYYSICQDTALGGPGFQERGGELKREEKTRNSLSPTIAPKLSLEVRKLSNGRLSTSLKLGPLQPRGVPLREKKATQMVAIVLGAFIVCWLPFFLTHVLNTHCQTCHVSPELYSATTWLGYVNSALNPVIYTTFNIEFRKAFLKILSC

D(1B) dopamine receptor [6] = biological target: T3, D(1B) dopamine receptor; assay: Binding affinity to D5 dopamine receptor by radioligand binding assay
D(4) dopamine receptor = biological target: T4, D(4) dopamine receptor (Homo sapiens, UniProt P21917); assay: Binding affinity to D4 dopamine receptor by radioligand binding assay
T4 sequence (P21917 whole entry): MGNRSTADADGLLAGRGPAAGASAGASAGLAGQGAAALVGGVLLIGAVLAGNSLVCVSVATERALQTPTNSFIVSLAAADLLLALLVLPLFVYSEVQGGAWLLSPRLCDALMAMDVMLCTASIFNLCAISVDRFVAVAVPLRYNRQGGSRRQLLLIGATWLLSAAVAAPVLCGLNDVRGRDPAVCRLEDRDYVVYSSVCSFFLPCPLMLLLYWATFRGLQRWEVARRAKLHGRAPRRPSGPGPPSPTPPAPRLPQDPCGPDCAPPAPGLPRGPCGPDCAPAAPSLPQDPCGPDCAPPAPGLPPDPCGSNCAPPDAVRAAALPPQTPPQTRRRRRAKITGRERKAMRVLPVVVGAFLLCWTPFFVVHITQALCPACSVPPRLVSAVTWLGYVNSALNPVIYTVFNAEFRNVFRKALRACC

T1 sequence (P21728 whole entry): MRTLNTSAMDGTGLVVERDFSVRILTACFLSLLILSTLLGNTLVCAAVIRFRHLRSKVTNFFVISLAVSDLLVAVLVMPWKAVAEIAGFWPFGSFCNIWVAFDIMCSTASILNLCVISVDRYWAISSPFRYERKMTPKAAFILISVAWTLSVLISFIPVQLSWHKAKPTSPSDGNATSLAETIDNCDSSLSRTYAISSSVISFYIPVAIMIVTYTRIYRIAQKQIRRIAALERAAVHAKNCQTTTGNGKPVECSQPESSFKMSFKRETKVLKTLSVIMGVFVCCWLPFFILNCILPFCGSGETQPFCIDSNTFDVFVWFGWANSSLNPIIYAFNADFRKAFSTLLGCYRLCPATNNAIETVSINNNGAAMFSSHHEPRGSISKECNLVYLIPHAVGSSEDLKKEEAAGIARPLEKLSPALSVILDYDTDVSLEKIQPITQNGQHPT

Row | Ki (D(1A) dopamine receptor [1]) | Ki (D(2) dopamine receptor [2]) | Ki (D(1A) dopamine receptor [3]) | Ki (D(1B) dopamine receptor [4]) | Ki (D(2) dopamine receptor [5]) | Ki (D(3) dopamine receptor) | Ki (D(1B) dopamine receptor [6]) | Ki (D(4) dopamine receptor) | Structure (SMILES)
1 | 25.3 nM | 210 nM | 34 nM | 59 nM | 2.5 nM | 415 nM | – | – | COc1c(Cl)cc2c(c1Cl)Cc1ccccc1CCN(C)CC2
2 | 82 nM | 62 nM | 567 nM | 1050 nM | 21.1 nM | 151 nM | – | – | COc1ccc2c(c1)Cc1ccccc1CCN(C)CC2
3 | 28.5 nM | 13 nM | 24.1 nM | 7.2 nM | 0.55 nM | 75.7 nM | – | – | COc1ccc2c(c1)CCN(C)CCc1ccccc1C2
4 | 2 nM | 58.7 nM | 3.3 nM | 0.54 nM | 19 nM | 342 nM | 1.68 nM | – | CN1CCc2cc(O)ccc2Cc2ccc(O)cc2CC1
5 | 8.9 nM | 36.9 nM | 2.6 nM | 37.5 nM | 19 nM | 296 nM | 42.3 nM | – | CN1CCc2ccccc2Cc2cc(O)ccc2CC1
6 | 3.1 nM | 2 nM | 10.8 nM | 3.1 nM | 4.8 nM | 27.7 nM | 4.9 nM | – | CN1CCc2ccccc2Cc2cc(O)c(Cl)cc2CC1
7 | 3.2 nM | 88 nM | 3.8 nM | 1.2 nM | 37.5 nM | – | – | – | CN1CCc2ccccc2Cc2cc(Cl)c(O)c(Cl)c2CC1
8 | 9.4 nM | 6.5 nM | 26.9 nM | 11.5 nM | 0.62 nM | 102 nM | 12.6 nM | – | COc1ccc2c(c1)CCN(C)CCc1cc(OC)ccc1C2
9 | 7.6 nM | 164 nM | 37.6 nM | 54.6 nM | 39.9 nM | 1830 nM | – | – | COc1cccc2c1Cc1ccccc1CCN(C)CC2
10 | 9.3 nM | 37.3 nM | 20.9 nM | 39.5 nM | 26.1 nM | – | 226 nM | – | CN1CCc2ccccc2Cc2cc(N)c(O)cc2CC1
11 | 0.83 nM | 4 nM | 0.46 nM | 0.053 nM | 6.1 nM | 24.6 nM | 0.057 nM | 5.2 nM | CN1CCc2ccccc2Cc2ccc(O)c(Cl)c2CC1
12 | 8.7 nM | 84 nM | 64.1 nM | 10.4 nM | 7.9 nM | 215 nM | – | – | CN1CCc2ccccc2Cc2c(O)cccc2CC1

Row | Structure (SMILES) | Ki (D(1A) dopamine receptor [1]) | Ki (D(2) dopamine receptor [2]) | Ki (D(1A) dopamine receptor [3]) | Ki (D(1B) dopamine receptor [4]) | Ki (D(2) dopamine receptor [5]) | Ki (D(3) dopamine receptor) | Ki (D(1B) dopamine receptor [6]) | Ki (D(4) dopamine receptor)
13 | CN1CCc2ccccc2Cc2c(ccc(O)c2Cl)CC1 | 0.46 nM | 0.99 nM | 6.8 nM | 1.6 nM | 0.13 nM | 1.88 nM | 0.98 nM | –
14 | CN1CCc2ccccc2Cc2[nH]c3ccccc3c2CC1 | 1.9 nM | 44.7 nM | – | 12.7 nM | 19 nM | – | 7.5 nM | –
